From patent US9999614B2, “Combination for the prophylaxis and treatment of behavioural, mental, and cognitive disorders” (LTD “VALENTA-INTELLEKT”, priority 2012, dated 2018)

Test system: amnestic effect caused by mice swimming in cold water, simultaneously rotating wheel to the point of exhaustion
Assay: CPAR, amnesia induced by swimming in cold water with wheel rotation to the point of exhaustion
Assay type: in vivo
Settings: Melatonin 5 mg, Memantin 10 mg mono-use
Protocol: For this, the active substances Melatonin 3 mg/Memantin 10 mg, Melatonin 5 mg/Memantin 20 mg, Melatonin 10 mg/Memantin 20 mg were taken, and doses recommended for human beings were converted into doses adapted for mice according to the formula “(active substance/70(average weight of a human being))×7”. Then the compositions were dissolved in 5 mL of the solution and, according to the given formula, introduced to animals intraperitoneally once a day for 5 days.
The CPAR test is the main model for evaluating substance influences on formation and replication of short-time memory in a normal condition and in an abnormal condition, i.e., induced amnesia. The CPAR is the most informative method among the methods that are used today for evaluating efficiency of substances with influence on the CNS of mammals (see, “Manual for Experimental (Pre-Clinical) Studies of New Pharmacological Substances”, 2000). The CPAR (conditioned passive avoidance reflex in a dark, light chamber) was taught to the mice on the basis of electrodermal response according to the method proposed by Cumin et al. (1982) with due regard to the recommendations given by Mondadori et al. (1990). The installation for mice, as produced by Lafayette Instrument Co., USA, was a black chamber with the electrode floor and a white plastic platform that was arranged on the floor in the center of the chamber. The mice, one by one, were put onto the plastic platform. The animals went/jumped down onto the electrode floor where they received an electric current shock, i.e., punishment. Electric current was supplied after the time when an animal stood on the floor with all its four legs. The natural response of the animals is to go back to the current-free or safe platform. After several minutes of teaching, 5 minutes on the average, mice developed CPAR and remained on the safe platform. Tests for memorizing CPAR were conducted in successive time intervals after amnesic action. In a case where an animal went/jumped down onto the platform within 1 minute, it was recorded as having retrograde amnesia of the passive avoidance skill. The compositions were studied in comparison with Melatonin 5 mg (mono-use) and Memantin 10 mg (mono-use), according to the above formula for adapting to animal models.
The antiamnestic action of the compositions on the amnesia model induced by swimming of mice in cold water with wheel rotation to the point of exhaustion. Studies were conducted on white non-linear male mice having a weight of 20-24 g with developing CPAR in the animals as in the previous studies. The animals were put, one by one, into a container filled with water and equipped with a rotating wheel. After teaching CPAR, the mice swam in cold water, simultaneously rotating the wheel to the point of exhaustion. The CPAR maintenance was checked in successive time intervals. As false imitation of swimming in cold water, mice were put onto a pad consisting of wet cold wadding. The substances and an isotonic solution of sodium chloride (control) were studied in comparison with Melatonin 5 mg (mono-use) and Memantin 10 mg (mono-use), in accordance with the above formula for adapting to animal models, by intraperitoneal introduction before teaching mice, once a day for 5 days.

SMILES | Latent time of entering into the dark chamber (1 day after teaching) [s] | Number of mice not entered into the dark chamber, % (1 day after teaching) [%] | Latent time of entering into the dark chamber (3 days after teaching) [s] | Number of mice not entered into the dark chamber, % (3 days after teaching) [%] | Latent time of entering into the dark chamber (7 days after teaching) [s] | Number of mice not entered into the dark chamber, % (7 days after teaching) [%] | Latent time of entering into the dark chamber (10 days after teaching) [s] | Number of mice not entered into the dark chamber, % (10 days after teaching) [%]
CC12CC3CC(C)(C1)CC(N)(C3)C2 [Memantin] | 111.3 ± 22.3 | 41.6 | 115.9 ± 16.5 | 50 | 117.4 ± 28.1 | 66.6 | 118.0 ± 23.3 | 66.6
COc1ccc2[nH]cc(CCNC(C)=O)c2c1 [Melatonin, N-acetyl-5-methoxytriptamine] | 109.3 ± 9.8 | 61.5 | 105.4 ± 13.5 | 46.1 | 104.6 ± 15.1 | 38.5 | 100.9 ± 17.4 | 30.7
